Experiments:
[1] = system: humeral head chondrocytes; assay: Explanted humeral head impact loading (2 mJ) after incubation with channel agonists; assay type: cell-based, mouse; conditions: 10 μM yoda1 or 5 nM GSK101, 15 minutes, 2 mJ load; for humeral head chondrocyte cell death following impact loading, female mice: relative to control media; for humeral head chondrocyte cell death following impact loading, male mice: relative to controls (DMSO 0.25%)
Description: Ethical approval was obtained from the appropriate institutional committee Humeri were harvested from wild-type 12-22 week old C57Bl/6 male and female mice. Each specimen was placed in calcium imaging buffer with 2 mM calcium chloride and subsequently incubated with 10 μM calcein-AM for 30 minutes at 37° C. To indicate intracellular esterase activity of living cells, each specimen was incubated with 10 μM yoda1, a Piezo1-specific agonist, 5 nM GSK101, a TRPV4-agonist, or control (DMSO 0.25%, n=7-10/group) in calcium imaging buffer for 15 minutes. Specimens were then incubated with 1.5 nM ethidium homodimer-1 for 3 minutes to indicate loss of plasma membrane integrity in dead cells. The specimen was then arranged in a custom 3-D printed holding device such that the chondrocytes within the apex of sphericity of the humeral head were facing the glass well of a dish to be imaged on an inverted confocal microscope. A baseline confocal image with overlay of 100 μm Z-stacks was obtained with 488 and 594 nm wavelengths to image live and dead cells, respectively. The humerus was then transferred to a custom impact loading apparatus. A 2 mJ load was applied to the lateral aspect of the proximal humerus, such that the convex apex of the humeral head cartilage was impacted against the glass microscope dish. A 2 mJ load was chosen based on preliminary work by Kotelsky to define mechanic-vulnerability of distal femur and proximal humerus articular chondrocytes in the custom loading apparatus. The samples were again incubated in ethidium homodimer-1. A post-injury confocal image with overlay of 100 μm Z-stacks was obtained. A custom MATLAB image processing algorithm was developed to quantify cell viability. The confocal images were processed as maximum intensity projections with threshold via Otsu's method. Then, watershed segmentation, distance transform, and centroid approximation algorithms were created and applied to segment and quantify individual cells based on intensity values. This facilitated the cell counting process, allowed quantification of the total cell area, and allowed adjustment of the region of interest between before- and after-impact micrographs.

chondrocytes = assay: Cartilage pre-treated with Yoda1: chondrocyte vulnerability to mechanical injury; assay type: cell-based, murine; conditions: cartilage pre-treated with Yoda1, versus vehicle-treated controls in contralateral limbs

Row | Compound | humeral head chondrocyte cell death following impact loading, female mice [1] | humeral head chondrocyte cell death following impact loading, male mice [1] | chondrocyte vulnerability to mechanical injury (chondrocytes)
1 | CC(C)C[C@H](NC(=O)c1cc2ccccc2s1)C(=O)N1CCN(C(=O)[C@H](CO)NS(=O)(=O)c2ccc(Cl)cc2Cl)CC1 [Gsk101] | nor was incubation with Gsk101 chondroprotective | statistically significant decrease in humeral head chondrocyte cell death | –
2 | Clc1cccc(Cl)c1CSc1nnc(-c2cnccn2)s1 [Yoda1] | not a significant increase in chondrocyte cell death | statistically significant increase in humeral head chondrocyte cell death | significantly higher chondrocyte vulnerability

Reference: patent publication US20250288645A1, “USE OF GsMTx4 AND GsMTx4 CONJUGATES TO IMPROVE RECOVERY FROM JOINT INJURY” (priority 2023, published 2025)
